Assay results as given in PMC9866191, “Novel 9-Benzylaminoacridine Derivatives as Dual Inhibitors of Phosphodiesterase 5 and Topoisomerase II for the Treatment of Colon Cancer” (Molecules, 2023).

Assays:
HCT-116 cells [1] = experiment: Cell cycle analysis (PI, flow cytometry); format: cell-based, human; settings: 10 µM, 24 h, PI staining
Experimental: To analyze cell cycle changes, cells permeated at 1 × 10^6 × cells/mL were trypsinized and diluted and then fixed in 70% ethanol at 4 °C. Cell cycle arrest in HCT-116 cells following compound exposure was accomplished using propidium iodide (Sigma-Aldrich, St. Louis, MI, USA). The markers were then assessed using a FACS-Caliburflow cytometer (Beckman Coulter, Taipei, Taiwan) and analyzed using WinMDI software. […]
(§1) Figure 3 Apoptosis induction and cell cycle effects of compounds in HCT-116 cells. (A) The apoptotic population of HCT-116 cells was analyzed using flow cytometry after treatment with 10 µM of the test compound for 24 h followed by Annexin V/propidium iodide (PI) staining. (B) After treatment with compound concentrations of 10 µM for 24 h, cells were fixed, stained with propidium iodide (PI), and analyzed for cell cycle distribution. Results are expressed as the means ± SD from three independent experiments (* p < 0.05 and ** p < 0.01 *** p < 0.001, control versus compound).

LOX IMVI = experiment: NCI-60 one-dose screen; format: cell-based; settings: Homo sapiens, Melanoma panel, single dose 10^−5 M, read-out: Growth inhibition %
CCD-966SK = experiment: MTT cell proliferation assay, CCD-966SK; settings: CCD966SK skin fibroblast, 72 h MTT; for IC50: read-out: IC50 μM
Experimental: In the MTT assay, 96-well culture plates were used. A total of 7 × 10^4 cells per well were seeded, and test materials were added to the cells at various concentrations [47, 48]. Human cancer and non-cancer cell lines were purchased commercially from the American Type Culture Collection (ATCC). After 72 h, the cytotoxicity of the compounds and paclitaxel (as a positive control group) was detected using the MTT method (thiazolyl blue tetrazolium bromide, Sigma-M2128). Absorbance values at 570 and 620 nm (OD = OD570–OD620) were measured using an ELISA reader (Anthos Labtec Instruments, Salzburg, Austria).

human DNA Topo II = target: T1, human DNA Topo II (Homo sapiens, UniProt P11388); experiment: Topo II-mediated relaxation of supercoiled pHOT1 plasmid DNA; format: biochemical; settings: for DNA band pattern in Topo II relaxation assay: at 1 and 5 µM doses, similar to doxorubicin; for concentration at which Topo II inhibition (increase of supercoiled DNA) is shown: cell-free relaxation assay, gel
T1 construct: purchased Topogen, Columbus, OH, USA
Experimental: Consequently, the effects of the synthesized compounds on Topo II activity were evaluated with a cell-free assay using a purified human DNA Topo II-protein-mediated relaxation of the negatively supercoiled pHOT1 plasmid DNA [40]. […] Two Topo II inhibitors (doxorubicin and etoposide) were used as positive controls.
The reaction was terminated by adding 2 μL of 10% SDS, followed by 2.5 μL of proteinase K (50 μg/mL) to digest the bound protein. The system was incubated at 37 °C for 15 min. The DNA product was finally analyzed using electrophoresis on a vertical 1.5% agarose gel at 2 volts/cm in 1 × TAE buffer and photographed using the Eagle Eye II system (Stratagene, La Jolla, CA, USA).
Figure 2 Effects of compounds on topoisomerase II activity. Effects on Topo II-mediated relaxation of supercoiled pHOT1 plasmid DNA in a cell-free system. Positive control: etoposide (10 µM); doxorubicin (5 µM) used as Topo II poison (induction of linear DNA); DNA relaxation: plasmid DNA + topo IIα + solvent control. Nick, nicked DNA; Sc, supercoiled DNA; Lin, linear DNA.

HCT-116 cells [2] = experiment: Annexin-V/PI apoptosis assay; format: cell-based, human; settings: 10 µM, 24 h
Experimental: For the same set of compounds, the apoptosis-inducing effects in HCT-116 cells were assessed using Annexin-V/PI double staining at 10 µM (Figure 3).
The number of apoptotic/necrotic cells was analyzed using flow cytometry following the manufacturer’s protocol. Markers were assessed using a FACS-Caliburflow cytometer (Beckman Coulter, Taipei, Taiwan) and analyzed using WinMDI 2.8 software.
as §1

T1 sequence (P11388 whole entry): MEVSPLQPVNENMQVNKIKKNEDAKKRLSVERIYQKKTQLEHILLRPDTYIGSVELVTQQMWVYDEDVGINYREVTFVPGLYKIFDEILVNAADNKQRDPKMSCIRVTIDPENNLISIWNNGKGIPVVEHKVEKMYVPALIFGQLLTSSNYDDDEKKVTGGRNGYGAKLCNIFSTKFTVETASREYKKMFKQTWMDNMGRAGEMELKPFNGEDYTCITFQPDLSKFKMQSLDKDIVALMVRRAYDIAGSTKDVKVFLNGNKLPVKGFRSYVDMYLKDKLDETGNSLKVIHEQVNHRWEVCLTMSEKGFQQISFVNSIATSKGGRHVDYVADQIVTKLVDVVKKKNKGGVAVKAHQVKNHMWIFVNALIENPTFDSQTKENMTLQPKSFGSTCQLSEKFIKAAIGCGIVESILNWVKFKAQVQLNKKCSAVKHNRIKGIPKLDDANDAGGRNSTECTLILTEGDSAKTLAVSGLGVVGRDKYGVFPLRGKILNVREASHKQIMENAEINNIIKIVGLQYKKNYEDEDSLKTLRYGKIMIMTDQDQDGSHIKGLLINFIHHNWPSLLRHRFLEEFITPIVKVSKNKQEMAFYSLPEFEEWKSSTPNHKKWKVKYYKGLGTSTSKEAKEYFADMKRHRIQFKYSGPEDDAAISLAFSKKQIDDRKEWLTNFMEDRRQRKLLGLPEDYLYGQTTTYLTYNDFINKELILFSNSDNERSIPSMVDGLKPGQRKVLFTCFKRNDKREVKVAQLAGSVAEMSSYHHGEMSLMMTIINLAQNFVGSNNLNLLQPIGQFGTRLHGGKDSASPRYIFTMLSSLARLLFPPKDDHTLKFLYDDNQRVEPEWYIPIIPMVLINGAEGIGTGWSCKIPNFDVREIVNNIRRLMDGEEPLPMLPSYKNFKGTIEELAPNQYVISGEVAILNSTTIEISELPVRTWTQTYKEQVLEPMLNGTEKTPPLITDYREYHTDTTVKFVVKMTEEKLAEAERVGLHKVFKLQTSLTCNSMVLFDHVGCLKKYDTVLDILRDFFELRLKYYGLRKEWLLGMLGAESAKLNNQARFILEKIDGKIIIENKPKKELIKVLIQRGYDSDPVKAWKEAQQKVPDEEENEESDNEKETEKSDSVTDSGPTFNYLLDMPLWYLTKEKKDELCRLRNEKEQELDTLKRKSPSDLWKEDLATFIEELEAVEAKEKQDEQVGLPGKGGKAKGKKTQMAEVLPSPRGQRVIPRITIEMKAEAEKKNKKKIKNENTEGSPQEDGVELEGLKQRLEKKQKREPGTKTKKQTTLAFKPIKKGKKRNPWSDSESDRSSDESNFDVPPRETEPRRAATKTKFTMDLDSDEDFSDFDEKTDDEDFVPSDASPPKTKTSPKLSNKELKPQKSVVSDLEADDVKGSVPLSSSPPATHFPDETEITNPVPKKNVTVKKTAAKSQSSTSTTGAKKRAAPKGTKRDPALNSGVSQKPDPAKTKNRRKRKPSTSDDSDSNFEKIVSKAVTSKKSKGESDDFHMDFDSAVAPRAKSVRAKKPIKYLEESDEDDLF

| SMILES | effect on cell cycle (HCT-116 cells [1]) | inhibition at 10 µM (LOX IMVI) [%] | % Inhibition at 10 µM (CCD-966SK) [%] | IC50 (CCD-966SK) [µM] | melting point [°C] | DNA band pattern in Topo II relaxation assay (human DNA Topo II) | concentration at which Topo II inhibition (increase of supercoiled DNA) is shown (human DNA Topo II) [µM] | induction of apoptosis (HCT-116 cells [2]) |
| --- | --- | --- | --- | --- | --- | --- | --- | --- |
| c1ccc(CNc2c3ccccc3nc3ccccc23)cc1 [Compound 1, Acridin-9-yl-benzyl-amine] | arrested the cell cycle in the S phase | 80.2 | 47.97 ± 1.96 |  |  |  |  |  |
| Cc1ccccc1CNc1c2ccccc2nc2ccccc12 [Compound 2, Acridin-9-yl-(2-methylbenzyl)-amine] | cell cycle arrest in the G2/M phase | 90.9 | 59.74 ± 0.55 | 4.18 ± 0.36 |  |  |  |  |
| Cc1cccc(CNc2c3ccccc3nc3ccccc23)c1 [Compound 3, Acridin-9-yl-(3-methylbenzyl)-amine] | cell cycle arrest in the G2/M phase | 93.8 | 54.31 ± 0.98 | 8.51 ± 0.07 |  |  |  |  |
| Cc1ccc(CNc2c3ccccc3nc3ccccc23)cc1 [Compound 4, Acridin-9-yl-(4-methylbenzyl)-amine] | increased the number of cells in the S phase and G2/M phase | 88.2 | 38.07 ± 5.90 |  |  |  |  |  |
| COc1ccccc1CNc1c2ccccc2nc2ccccc12 [Compound 5, Acridin-9-yl-(2-methoxybenzyl)-amine] | does not affect the cell cycle | 81.1 | 6.65 ± 1.18 |  |  |  |  |  |
| COc1cccc(CNc2c3ccccc3nc3ccccc23)c1 [Compound 6, Acridin-9-yl-(3-methoxybenzyl)-amine] |  | 80.2 | 54.31 ± 0.98 |  | 107 to 109 |  |  |  |
| COc1ccc(CNc2c3ccccc3nc3ccccc23)cc1 [Compound 7, Acridin-9-yl-(4-methoxybenzyl)-amine] |  | 79.1 | 13.09 ± 2.52 |  | 116 to 118 |  |  |  |
| Fc1ccccc1CNc1c2ccccc2nc2ccccc12 [Compound 8, Acridin-9-yl-(2-fluorobenzyl)-amine] | cell cycle arrest in the G2/M phase | 73.9 | 42.52 ± 2.0 |  |  | larger base pair band than nicked DNA |  |  |
| Fc1cccc(CNc2c3ccccc3nc3ccccc23)c1 [Compound 9, Acridin-9-yl-(3-fluorobenzyl)-amine] | cell cycle arrest in the G2/M phase | 87.7 | 42.74 ± 2.09 |  |  | larger base pair band than nicked DNA |  |  |
| Fc1ccc(CNc2c3ccccc3nc3ccccc23)cc1 [Compound 10, Acridin-9-yl-(4-fluorobenzyl)-amine] | increased the number of cells in the S phase and G2/M phase | 90.6 | 52.93 ± 1.00 | 9.26 ± 0.21 |  |  |  |  |
| Clc1ccccc1CNc1c2ccccc2nc2ccccc12 [Compound 11, Acridin-9-yl-(2-chlorobenzyl)-amine] | cell cycle arrest in the G2/M phase | 95.2 | 36.77 ± 3.49 |  |  | larger base pair band than nicked DNA | 0.04 |  |
| Clc1cccc(CNc2c3ccccc3nc3ccccc23)c1 [Compound 12, Acridin-9-yl-(3-chlorobenzyl)-amine] | cell cycle arrest in the G2/M phase | 98.2 | 45.43 ± 0.42 |  |  |  | 0.2 |  |
| Clc1ccc(CNc2c3ccccc3nc3ccccc23)cc1 [Compound 13, Acridin-9-yl-(4-chlorobenzyl)-amine] | cell cycle arrest in the G2/M phase | 77 | 2.73 ± 4.11 |  | 145 to 147 |  |  |  |
| c1coc(CNc2c3ccccc3nc3ccccc23)c1 [Compound 14, Acridin-9-yl-furan-2-ylmethyl-amine] | arrested the cell cycle in the S phase | 62.9 | 33.89 ± 0.85 |  |  | larger base pair band than nicked DNA |  | 20%–50% |
| COc1cccc(CNc2c3ccccc3nc3ccccc23)c1OC [Compound 16, Acridin-9-yl-(2,3-dimethoxybenzyl)-amine] |  | 87 | 29.78 ± 2.20 |  | 175 to 177 |  |  |  |
| COc1ccc(CNc2c3ccccc3nc3ccccc23)c(OC)c1 [Compound 17, Acridin-9-yl-(2,4-dimethoxybenzyl)-amine] |  | 82.3 | 35.11 ± 0.42 |  | 170 to 172 |  |  |  |
| COc1ccc(CNc2c3ccccc3nc3ccccc23)cc1OC [Compound 18, Acridin-9-yl-(3,4-dimethoxybenzyl)-amine] | increased the number of cells in the S phase and G2/M phase | 104 | 32.27 ± 0.58 |  |  | larger base pair band than nicked DNA |  | 20%–50% |
| COc1ccc(CNc2c3ccccc3nc3ccccc23)cc1F [Compound 19, Acridin-9-yl-(3-fluoro-4-methoxybenzyl)-amine] |  | 98.8 | 41.77 ± 0.99 |  | 145 to 147 |  |  |  |
| Fc1cccc(CNc2c3ccccc3nc3ccccc23)c1F [Compound 20, Acridin-9-yl-(2,3-difluorobenzyl)-amine] | cell cycle arrest in the S phase and reduced the percentage of cells in the G2/M phase | 60.8 | 40.30 ± 3.56 |  |  | larger base pair band than nicked DNA |  | 20%–50% |
| Fc1ccc(CNc2c3ccccc3nc3ccccc23)c(F)c1 [Compound 21, Acridin-9-yl-(2,4-difluorobenzyl)-amine] | cell cycle arrest in the G2/M phase | 78.5 | 30.94 ± 0.86 |  |  | larger base pair band than nicked DNA |  | less than 20% |
| c1ccc(CCNc2c3ccccc3nc3ccccc23)cc1 [Compound 23, Acridin-9-yl-phenethyl-amine] |  | 82.4 | 11.36 ± 7.38 |  | 151 to 153 |  |  |  |
| COc1ccc2nc3ccccc3c(NCc3ccc(C)cc3)c2c1 [Compound 26, (2-Methoxyacridin-9-yl)-(4-methylbenzyl)-amine] |  | 106 | 46.76 ± 3.21 |  | 131 to 133 |  |  |  |
| COc1ccc(CNc2c3ccccc3nc3ccc(OC)cc23)cc1 [Compound 27, (2-Methoxyacridin-9-yl)-(4-methoxybenzyl)-amine] |  | 175 | 19.04 ± 3.94 |  | 168 to 170 |  |  |  |
| COc1ccc2nc3ccccc3c(NCc3ccc(Cl)cc3)c2c1 [Compound 29, (4-Chlorobenzyl)-(2-methoxyacridin-9-yl)-amine] |  | 186 | 2.90 ± 2.51 |  | 178 to 180 |  |  |  |
